According to ChEMBL document CHEMBL1201862, “PubChem BioAssay data set” (2004):
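Cultured in 96-well plates, cells were exposed to test compound for 48 hours across five concentrations. GI50 is the concentration that inhibits growth by half.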 Activity calls are given as the source filed them. Cut-off read from the data, not from the text of the source: active = GI50 up to about 1.1 µM and inactive = higher.

Legend:
Experiment in all cases: NCI anticancer screen, dose series, 48 h
A498 = tested on: A498
NCI-H460 = tested on: NCI-H460
SN12C = tested on: SN12C
CAKI-1 = tested on: CAKI-1
A549 = tested on: A549
SK-MEL-28 = tested on: SK-MEL-28
SW-620 = tested on: SW-620
SK-OV-3 = tested on: SK-OV-3
U-251 = tested on: U-251
HCC 2998 = tested on: HCC 2998
UACC-257 = tested on: UACC-257
CCRF-CEM = tested on: CCRF-CEM
HOP-62 = tested on: HOP-62
MOLT-4 = tested on: MOLT-4
LXFL 529 = tested on: LXFL 529
K562 = tested on: K562
OVCAR-4 = tested on: OVCAR-4
KM-20L2 = tested on: KM-20L2
SNB-78 = tested on: SNB-78
HT-29 = tested on: HT-29
UO-31 = tested on: UO-31
NCI-H226 = tested on: NCI-H226
UACC-62 = tested on: UACC-62
HCT-15 = tested on: HCT-15
DMS-114 = tested on: DMS-114
SK-MEL-5 = tested on: SK-MEL-5
IGROV-1 = tested on: IGROV-1
SF-539 = tested on: SF-539
M14 = tested on: M14
DMS-273 = tested on: DMS-273
SNB-19 = tested on: SNB-19
EKVX = tested on: EKVX
KM12 = tested on: KM12
HOP-92 = tested on: HOP-92
HCT-116 = tested on: HCT-116
786-0 = tested on: 786-0
RXF 393 = tested on: RXF 393
LOX IMVI = tested on: LOX IMVI
M19-MEL = tested on: M19-MEL
SR = tested on: SR
SK-MEL-2 = tested on: SK-MEL-2
COLO 205 = tested on: COLO 205
DLD-1 = tested on: DLD-1
HL-60 = tested on: HL-60
NCI-H23 = tested on: NCI-H23
NCI-H522 = tested on: NCI-H522
SF-268 = tested on: SF-268
RPMI-8226 = tested on: RPMI-8226
OVCAR-5 = tested on: OVCAR-5
OVCAR-3 = tested on: OVCAR-3
SF-295 = tested on: SF-295
ACHN = tested on: ACHN
OVCAR-8 = tested on: OVCAR-8
Malme-3M = tested on: Malme-3M
SNB-75 = tested on: SNB-75
XF498 = tested on: XF498
TK-10 = tested on: TK-10
HOP-18 = tested on: HOP-18

With `[N-]=[N+]=C1C(=O)C2CC3CC(C2)CC1C3` the GI50 (A498) was > 100 µM (inactive), the GI50 (NCI-H460) was > 100 µM (inactive) and the GI50 (SN12C) was > 100 µM (inactive). For the same compound, the GI50 (CAKI-1) was > 100 µM (inactive), the GI50 (A549) was > 100 µM (inactive) and the GI50 (SK-MEL-28) was > 100 µM (inactive). For the same compound, the GI50 (SW-620) was 64 µM (inactive), the GI50 (SK-OV-3) was > 100 µM (inactive) and the GI50 (U-251) was > 100 µM (inactive). The GI50 (HCC 2998) was > 100 µM (inactive), the GI50 (UACC-257) was > 100 µM (inactive) and the GI50 (CCRF-CEM) was > 100 µM (inactive). The GI50 (HOP-62) was > 100 µM (inactive), the GI50 (MOLT-4) was > 100 µM (inactive) and the GI50 (LXFL 529) was > 100 µM (inactive). For the same compound, the GI50 (K562) was > 100 µM (inactive), the GI50 (OVCAR-4) was > 100 µM (inactive) and the GI50 (KM-20L2) was > 100 µM (inactive). For the same compound, the GI50 (SNB-78) was > 100 µM (inactive), the GI50 (HT-29) was > 100 µM (inactive) and the GI50 (UO-31) was > 100 µM (inactive). The GI50 (NCI-H226) was > 100 µM (inactive), the GI50 (UACC-62) was > 100 µM (inactive) and the GI50 (HCT-15) was greater than 100 µM. The GI50 (DMS-114) was > 100 µM (inactive), the GI50 (SK-MEL-5) was > 100 µM (inactive) and the GI50 (IGROV-1) was > 100 µM (inactive). The GI50 (SF-539) was > 100 µM (inactive), the GI50 (M14) was > 100 µM (inactive) and the GI50 (DMS-273) was > 100 µM (inactive). The GI50 (SNB-19) was > 100 µM (inactive), the GI50 (EKVX) was > 100 µM (inactive) and the GI50 (KM12) was > 100 µM (inactive). The GI50 (HOP-92) was > 100 µM (inactive), the GI50 (HCT-116) was > 100 µM (inactive) and the GI50 (786-0) was > 100 µM (inactive). The GI50 (RXF 393) was > 100 µM (inactive), the GI50 (LOX IMVI) was > 100 µM (inactive) and the GI50 (M19-MEL) was > 100 µM (inactive). The GI50 (SR) was > 100 µM (inactive), the GI50 (SK-MEL-2) was > 100 µM (inactive) and the GI50 (COLO 205) was > 100 µM (inactive). For the same compound, the GI50 (DLD-1) was > 100 µM (inactive), the GI50 (HL-60) was > 100 µM (inactive) and the GI50 (NCI-H23) was > 100 µM (inactive). For the same compound, the GI50 (NCI-H522) was > 100 µM (inactive), the GI50 (SF-268) was > 100 µM (inactive) and the GI50 (RPMI-8226) was > 100 µM (inactive). For the same compound, the GI50 (OVCAR-5) was > 100 µM (inactive), the GI50 (OVCAR-3) was > 100 µM (inactive) and the GI50 (SF-295) was > 100 µM (inactive). For the same compound, the GI50 (ACHN) was > 100 µM (inactive), the GI50 (OVCAR-8) was > 100 µM (inactive) and the GI50 (Malme-3M) was > 100 µM (inactive). The GI50 (SNB-75) was > 100 µM (inactive), the GI50 (XF498) was > 100 µM (inactive) and the GI50 (TK-10) was > 100 µM (inactive). For the same compound, the GI50 (HOP-18) was > 100 µM (inactive).

`Cc1ccc(C2OC(COCc3ccc(Cl)cc3)C(OCc3ccc(Cl)cc3)C2O)cc1` (stereo not drawn) was tested, and the GI50 (NCI-H460) was 4.49 µM (inactive), the GI50 (SN12C) was 3.65 µM (inactive) and the GI50 (CAKI-1) was 11.4 µM (inactive). For the same compound, the GI50 (A549) was 9.42 µM (inactive), the GI50 (SK-MEL-28) was 31.1 µM (inactive) and the GI50 (SW-620) was 14.3 µM (inactive). For the same compound, the GI50 (SK-OV-3) was 2.63 µM (inactive), the GI50 (U-251) was 10.5 µM (inactive) and the GI50 (HCC 2998) was 19.3 µM (inactive). The GI50 (UACC-257) was 17 µM (inactive), the GI50 (MOLT-4) was 2.06 µM (inactive) and the GI50 (LXFL 529) was 8.47 µM (inactive). The GI50 (K562) was 4.42 µM (inactive), the GI50 (OVCAR-4) was 17.8 µM (inactive) and the GI50 (KM-20L2) was 12.6 µM (inactive). The GI50 (SNB-78) was 14.3 µM (inactive), the GI50 (HT-29) was 7.69 µM (inactive) and the GI50 (UO-31) was 6.76 µM (inactive). The GI50 (NCI-H226) was 1.36 µM (inactive), the GI50 (UACC-62) was 4.42 µM (inactive) and the GI50 (HCT-15) was 7.85 µM. For the same compound, the GI50 (DMS-114) was 5.24 µM (inactive), the GI50 (SK-MEL-5) was 12.1 µM (inactive) and the GI50 (IGROV-1) was 8.89 µM (inactive). The GI50 (SF-539) was 16 µM (inactive), the GI50 (DMS-273) was 5.82 µM (inactive) and the GI50 (SNB-19) was 17.8 µM (inactive). For the same compound, the GI50 (EKVX) was 13 µM (inactive), the GI50 (KM12) was 9.38 µM (inactive) and the GI50 (HOP-92) was 3.18 µM (inactive). The GI50 (HCT-116) was 11.5 µM (inactive), the GI50 (786-0) was > 10 µM (inactive) and the GI50 (RXF 393) was 3.19 µM (inactive). The GI50 (M19-MEL) was 11.4 µM (inactive), the GI50 (SR) was 3.22 µM (inactive) and the GI50 (SK-MEL-2) was 11.1 µM (inactive). The GI50 (COLO 205) was 22.8 µM (inactive), the GI50 (DLD-1) was 9.29 µM (inactive) and the GI50 (NCI-H23) was 6.44 µM (inactive). The GI50 (RPMI-8226) was 4.76 µM (inactive), the GI50 (OVCAR-5) was > 100 µM (inactive) and the GI50 (OVCAR-3) was 10.7 µM (inactive). The GI50 (SF-295) was 12.3 µM (inactive), the GI50 (ACHN) was 15.1 µM (inactive) and the GI50 (OVCAR-8) was 13.7 µM (inactive). The GI50 (Malme-3M) was > 10 µM (inactive), the GI50 (SNB-75) was 4.37 µM (inactive) and the GI50 (XF498) was 10.2 µM (inactive). For the same compound, the GI50 (TK-10) was 12.7 µM (inactive) and the GI50 (HOP-18) was 79.4 µM (inactive).
